This note sets out measurements from patent US20160024114A1, “MACROCYCLIC RIP2 KINASE INHIBITORS” (ONCODESIGN S.A, priority 2013, published 2016).

Bounds are passed on as bounds.

This experiment concerns the target RIP2 recombinant protein (Homo sapiens, UniProt O43353). Nature of the experiment: radiometric protein kinase assay (33PanQinase Activity Assay), in vitro peptide-based kinase assay. The note with it: for remaining activity at 0.1 µM / remaining activity at 1 µM: 1 h; for remaining activity at 0.1 µM: compound at 0.1 μM; for remaining activity at 1 µM: compound at 1 μM; for IC50: ATP 3.0 μM, RIP2 15.7 nM, substrate RBER-Chktide. In kind it is biochemical. How it is done:
The inhibition of RIP2 kinase was assessed using RIP2 recombinant protein in an in vitro peptide-based kinase assay.
A radiometric protein kinase assay (^33PanQinase® (^33PanQinase Activity Assay) is used for measuring the kinase activity. All assays are performed in 96-well FlashPlates™ from Perkin Elmer in a 50 μl reaction volume. The reaction cocktail is pipetted in 4 steps in the following order:
10 μl of non-radioactive ATP solution (in H2O)
25 μl of assay buffer/[γ-^33P]-ATP mixture
5 μl of test sample in 10% DMSO
10 μl of enzyme/substrate mixture
The assay for RIP2 contains 70 mM HEPES-NaOH pH 7.5, 3 mM MgCl2, 3 mM MnCl2, 3 μM Na-orthovanadate, 1.2 mM DTT, 50 μg/ml PEG20000, ATP (3.0 μM), [γ-^33P]-ATP (approx. 5×10^05 cpm per well), protein kinase RIP2 (15.7 nM) and substrate (RBER-Chktide), 2.0 μg/50 μl). The reaction cocktails were incubated at 30° C. for 60 minutes. The reaction was stopped with 50 μl of 2% (v/v) H3PO4, plates were aspirated and washed two times with 200 μl 0.9% (w/v) NaCl. Incorporation of ^33Pi (counting of “cpm”) was determined with a microplate scintillation counter.
The compounds are dissolved to 10 mM in DMSO. Where needed, solutions are sonicated in a bath sonicator.
Table 4 provides the pIC50 values and % Remaining activity values at two concentrations (1 μM and 0.1 μM) of the compounds according to the invention, obtained using the above mentioned kinase assay.

Chain of RIP2 recombinant protein (O43353 whole entry): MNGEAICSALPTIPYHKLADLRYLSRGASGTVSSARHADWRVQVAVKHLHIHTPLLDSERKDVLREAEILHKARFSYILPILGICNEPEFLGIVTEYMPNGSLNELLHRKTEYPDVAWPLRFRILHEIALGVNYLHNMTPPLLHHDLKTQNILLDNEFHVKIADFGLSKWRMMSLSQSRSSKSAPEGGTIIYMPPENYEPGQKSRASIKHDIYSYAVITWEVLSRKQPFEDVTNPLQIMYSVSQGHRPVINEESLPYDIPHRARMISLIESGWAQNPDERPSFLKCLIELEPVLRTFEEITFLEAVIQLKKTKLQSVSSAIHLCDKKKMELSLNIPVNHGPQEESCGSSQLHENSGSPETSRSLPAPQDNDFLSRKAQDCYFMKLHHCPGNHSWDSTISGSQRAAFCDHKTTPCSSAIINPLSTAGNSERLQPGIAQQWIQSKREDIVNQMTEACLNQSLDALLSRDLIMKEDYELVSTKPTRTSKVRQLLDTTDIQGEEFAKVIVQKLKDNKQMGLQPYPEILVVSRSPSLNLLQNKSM

On to `COCCC(=O)N1CCCN(C)c2cccc(c2)-c2cnn3ccc(nc23)NCC1` [Compound B19], for which the remaining activity at 0.1 µM was under 50% and the remaining activity at 1 µM is under 50%.
Regarding `NC(=O)c1ccc2cc1OCC(=O)NCCCNc1ccn3ncc-2c3n1` [Compound B21], the remaining activity at 0.1 µM was under 50%, the remaining activity at 1 µM was under 50% and the IC50 is under 100 nM.
Take `O=C(CN1CCOCC1)N1CCNc2ccn3ncc(c3n2)-c2cccc(c2)OCC1` [Compound B36]: the remaining activity at 0.1 µM is under 50%, the remaining activity at 1 µM is under 50% and the IC50 is under 100 nM.
As for `CN(C)CCN1CCN(C(=O)C2CC2)CCOc2cccc(c2)-c2cnn3ccc1nc23` [Compound B48], the remaining activity at 0.1 µM was under 50%, the remaining activity at 1 µM is under 50% and the IC50 was under 100 nM.
`O=C1CCNc2ccn3ncc(c3n2)-c2cc(F)cc(c2)OCCN1` [Compound B74]: the remaining activity at 0.1 µM was under 50%, the remaining activity at 1 µM was under 50% and the IC50 is 100 to 1000 nM.
As to `CN1CCN(C(=O)C2CC2)CCNc2ccn3ncc(c3n2)-c2cccc(c2)C1` [Compound B76], the remaining activity at 0.1 µM is over 50%, the remaining activity at 1 µM was under 50% and the IC50 is 100 to 1000 nM.
Turning to `CCCCN1CCNc2ccn3ncc(c3n2)-c2cc(F)cc(c2)OCC1` [Compound F81], the remaining activity at 0.1 µM is under 50%, the remaining activity at 1 µM is under 50% and the IC50 is under 100 nM.
For the compound `Fc1cc2cc(c1)-c1cnn3ccc(nc13)NCCN(C1CCOCC1)CCO2` [Compound F82], the remaining activity at 0.1 µM was under 50%, the remaining activity at 1 µM is under 50% and the IC50 is under 100 nM.
Turning to `CCC(C)N1CCNc2ccn3ncc(c3n2)-c2cc(F)cc(c2)OCC1` (stereo not shown) [Compound F83], the remaining activity at 0.1 µM was under 50%, the remaining activity at 1 µM was under 50% and the IC50 was under 100 nM.
For `Fc1cc2cc(c1)-c1cnn3ccc(nc13)NCCN(C1CCC3(CC1)OCCO3)CCO2` [Compound F84], the remaining activity at 0.1 µM was under 50%, the remaining activity at 1 µM was under 50% and the IC50 lay within 100 to 1000 nM.
Turning to `COCCN1CCCNc2ccn3ncc(c3n2)-c2cc(F)cc(c2)OCC1` [Compound F86], the remaining activity at 0.1 µM was under 50%, the remaining activity at 1 µM was under 50% and the IC50 is under 100 nM.
Regarding `COCCN1CCCOc2cc(F)cc(c2)-c2cnn3ccc(nc23)NCC1` [Compound F87], the remaining activity at 0.1 µM is under 50%, the remaining activity at 1 µM is under 50% and the IC50 is under 100 nM.
As to `COCCN1CCCNc2ccn3ncc(c3n2)-c2cc(Cl)cc(c2)OCC1` [Compound F88], the remaining activity at 0.1 µM is under 50%, the remaining activity at 1 µM was under 50% and the IC50 is under 100 nM.
For `CC1(C)CCCC(N2CCNc3ccn4ncc(c4n3)-c3cc(F)cc(c3)OCC2)C1` (stereo not shown) [Compound F89], the remaining activity at 0.1 µM is under 50%, the remaining activity at 1 µM was under 50% and the IC50 lay in the range of 100 to 1000 nM.
Regarding `NC(=O)c1cc2cc(c1)-c1cnn3ccc(nc13)NCCN(C1COC1)CCO2` [Compound F91], the remaining activity at 0.1 µM is under 50%, the remaining activity at 1 µM was under 50% and the IC50 is under 100 nM.
As for `CCCCN1CCNc2ccn3ncc(c3n2)-c2cc(cc(C(N)=O)c2)OCC1` [Compound F92], the remaining activity at 0.1 µM was under 50%, the remaining activity at 1 µM was under 50% and the IC50 is under 100 nM.
With `CC1CNc2ccn3ncc(c3n2)-c2cccc(c2)OCC(=O)N1` (stereo not shown) [Compound F105], the remaining activity at 0.1 µM was over 50%, the remaining activity at 1 µM was under 50% and the IC50 was 100 to 1000 nM.
Take `O=C1COc2cncc(c2)-c2cnn3ccc(nc23)NCCCN1` [Compound F106]: the IC50 was in the range of 100 to 1000 nM.
Still for that read-out and setting: under `CC1CNCCOc2cccc(c2)-c2cnn3ccc(nc23)N1` (stereo not shown) [Compound F108] stands 100 to 1000 nM.
